# From US11840686B2, “Modulation of prekallikrein (PKK) expression” (Ionis Pharmaceuticals, Inc., priority 2013, dated 2023)
# Strand notation (5' to 3'): a small letter for the sugar, then the base; units joined by * are phosphorothioate-linked, units joined directly phosphodiester-linked; [ ] holds rarer units or linkages, { } end groups; capitals alone tell only the bases. e = 2'-O-(2-methoxyethyl) (MOE); [5mC] = 5-methylcytosine; d = 2'-deoxy (DNA)
# How the values were obtained:
# human PKK mRNA [1] = test: Dose-dependent antisense inhibition of human PKK in HepaRG cells, 0.12-10.00 uM (Example 4); format: cell-based; details: electroporation, ~16 h
# Protocol: Cells were plated at a density of 20,000 cells per well and transfected using electroporation with 0.12 μM, 0.37 μM, 1.11 μM, 3.33 μM, and 10.00 μM concentrations of antisense oligonucleotide. After a treatment period of approximately 16 hours, RNA was isolated from the cells and PKK mRNA levels were measured by quantitative real-time PCR. Human PKK primer probe set RTS3454 was used to measure mRNA levels. PKK mRNA levels were adjusted according to total RNA content, as measured by RIBOGREEN®. The antisense oligonucleotides were tested in a series of experiments that had similar culture conditions. Results are presented as percent inhibition of PKK, relative to untreated control cells.
# The half maximal inhibitory concentration (IC50) of each oligonucleotide is also presented.
# human PKK mRNA [2] = test: Antisense inhibition of human PKK mRNA in HepaRG cells, 3,000 nM (Example 1); format: cell-based; details: relative to untreated control cells
# Procedure, shortened: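 Values give percent PKK mRNA reduction relative to untreated controls, normalised to RIBOGREEN total RNA. mRNA was quantified by real-time PCR (RTS3454) about 24 h after electroporation. Each 20-mer MOE gapmer was delivered at 3,000 nM into 20,000 HepaRG cells per well.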
# [3] = Table 1, PKK mRNA, HepaRG cells, 3,000 nM, electroporation, ~24 h
# [4] = Table 2, PKK mRNA, HepaRG cells, 3,000 nM, electroporation, ~24 h
# [5] = Table 3, HepaRG cells, electroporation with 3,000 nM antisense oligonucleotide, approx. 24 hours, PKK mRNA by RT-PCR (RTS3454)
# [6] = Table 4, HepaRG cells, electroporation with 3,000 nM antisense oligonucleotide, approx. 24 hours, PKK mRNA by RT-PCR (RTS3454)
Substance,"percent inhibition of PKK at 0.12 μM (human PKK mRNA [1]; Table 32, 0.12 μM) [%]","percent inhibition of PKK at 0.37 μM (human PKK mRNA [1]; Table 32, 0.37 μM) [%]","percent inhibition of PKK at 1.11 μM (human PKK mRNA [1]; Table 32, 1.11 μM) [%]","percent inhibition of PKK at 3.33 μM (human PKK mRNA [1]; Table 32, 3.33 μM) [%]","percent inhibition of PKK at 10.00 μM (human PKK mRNA [1]; Table 32, 10.00 μM) [%]","IC50 (human PKK mRNA [1]; Table 32, PKK mRNA) [nM]",% inhibition (human PKK mRNA [2]; [3]) [%],% inhibition (human PKK mRNA [2]; [4]) [%],"percent inhibition of PKK at 0.12 μM (human PKK mRNA [1]; Table 33, 0.12 μM) [%]","percent inhibition of PKK at 0.37 μM (human PKK mRNA [1]; Table 33, 0.37 μM) [%]","percent inhibition of PKK at 1.11 μM (human PKK mRNA [1]; Table 33, 1.11 μM) [%]","percent inhibition of PKK at 3.33 μM (human PKK mRNA [1]; Table 33, 3.33 μM) [%]","percent inhibition of PKK at 10.00 μM (human PKK mRNA [1]; Table 33, 10.00 μM) [%]","IC50 (human PKK mRNA [1]; Table 33, PKK mRNA) [nM]",% inhibition (human PKK mRNA [2]; [5]) [%],% inhibition (human PKK mRNA [2]; [6]) [%]
531004 (eA*eG*eA*eG*eT*dA*dA*d[5mC]*d[5mC]*dA*dG*dA*dG*d[5mC]*dT*e[5mC]*e[5mC]*e[5mC]*eT*eT; antisense) [compound 531004],0,14,25,71,84,2100,76,–,–,–,–,–,–,–,–,–
531005 (e[5mC]*eT*e[5mC]*eA*eA*dA*dG*dA*dG*dT*dA*dA*d[5mC]*d[5mC]*dA*eG*eA*eG*e[5mC]*eT; antisense) [compound 531005],14,28,61,73,77,900,76,–,–,–,–,–,–,–,–,–
531022 (eG*eT*eA*eA*eT*dG*dT*d[5mC]*dT*dG*dA*d[5mC]*dA*dG*dA*eT*eT*eT*eA*eA; antisense) [compound 531022],0,0,32,62,77,2200,–,74,–,–,–,–,–,–,–,–
531026 (antisense eA*eT*e[5mC]*eA*eT*dG*dA*dT*dT*d[5mC]*d[5mC]*d[5mC]*dT*dT*d[5mC]*eT*eG*eA*eG*eA) [compound 531026],–,–,–,–,–,–,–,73,23,26,49,75,85,1000,–,–
531055 (antisense e[5mC]*e[5mC]*e[5mC]*eT*eT*d[5mC]*dT*dT*dT*dA*dT*dA*dG*d[5mC]*d[5mC]*eA*eG*e[5mC]*eA*e[5mC]) [compound 531055],–,–,–,–,–,–,–,68,3,28,64,76,81,900,–,–
531069 (e[5mC]*e[5mC]*eA*eG*eT*d[5mC]*d[5mC]*dA*dT*dG*dT*dA*d[5mC]*dT*d[5mC]*eA*eG*e[5mC]*eG*eA; antisense) [compound 531069],–,–,–,–,–,–,–,56,19,39,48,76,83,900,–,–
531071 (e[5mC]*eT*eG*e[5mC]*eT*d[5mC]*dT*dG*dT*dG*dT*dT*dT*dT*d[5mC]*eT*e[5mC]*eT*eA*eA; antisense) [compound 531071],–,–,–,–,–,–,–,73,23,37,56,83,83,700,–,–
531078 (eA*eG*e[5mC]*eA*eG*d[5mC]*dT*d[5mC]*dT*dG*dA*dG*dT*dG*d[5mC]*eA*e[5mC]*eT*eG*eT; antisense) [compound 531078],10,27,54,69,92,1100,–,77,–,–,–,–,–,–,–,–
531110 (antisense eG*e[5mC]*e[5mC]*eT*eG*dT*dT*dT*dG*dG*dT*dG*dG*dT*d[5mC]*eT*e[5mC]*eT*eT*e[5mC]) [compound 531110],–,–,–,–,–,–,–,–,14,29,49,76,85,1100,86,–
531121 (antisense eT*eT*eG*eG*eT*d[5mC]*dT*dA*d[5mC]*dA*dG*dA*dT*dT*d[5mC]*eA*eA*eT*eG*e[5mC]) [compound 531121],–,–,–,–,–,–,–,–,0,13,47,69,79,1500,72,–
531123 (antisense eT*e[5mC]*e[5mC]*e[5mC]*eA*dG*d[5mC]*dT*d[5mC]*d[5mC]*dA*dG*dT*d[5mC]*dA*e[5mC]*e[5mC]*eA*e[5mC]*e[5mC]) [compound 531123],–,–,–,–,–,–,–,–,14,43,51,71,64,900,74,–
531172 (antisense eT*eT*e[5mC]*eA*eA*dG*d[5mC]*d[5mC]*dT*dG*dG*dG*d[5mC]*dA*dG*e[5mC]*eA*e[5mC]*eA*eG) [compound 531172],–,–,–,–,–,–,–,–,0,16,37,60,60,2100,–,71
531198 (eG*eG*eG*eA*eT*dT*dT*dT*dG*d[5mC]*dT*dG*dA*dA*dG*e[5mC]*eT*eG*eG*eT; antisense) [compound 531198],–,–,–,–,–,–,–,–,0,35,62,76,60,800,–,73
531232 (e[5mC]*eT*eG*eT*eA*d[5mC]*dT*dA*dG*dT*dT*dT*d[5mC]*d[5mC]*dT*eA*eT*eA*eA*e[5mC]; antisense) [compound 531232],–,–,–,–,–,–,–,–,15,26,40,62,76,1700,–,85
531233 (eA*e[5mC]*eT*eG*eT*dA*d[5mC]*dT*dA*dG*dT*dT*dT*d[5mC]*d[5mC]*eT*eA*eT*eA*eA; antisense) [compound 531233],–,–,–,–,–,–,–,–,17,27,50,77,84,1000,–,86
531234 (e[5mC]*eA*e[5mC]*eT*eG*dT*dA*d[5mC]*dT*dA*dG*dT*dT*dT*d[5mC]*e[5mC]*eT*eA*eT*eA; antisense) [compound 531234],–,–,–,–,–,–,–,–,24,21,47,72,82,1400,–,86
